Experimental data: US20050019260A1, “Animal model for allergy” (priority 2001, published 2005)

Tested on: sheep mammary gland
Assay: Single intramammary infusion of lipopolysaccharide, MAL cell collection
Assay type: in vivo

In the case of lipopolysaccharide, the MAL cell influx (24 h after single intramammary infusion) is reported as “predominantly neutrophils” and the MAL cell influx (day 5 after single intramammary infusion) is reported as “macrophage infiltration”.
